Converted amounts (≈) assume the structure as drawn.
Columns and labels:
[1] = test system: M. pneumoniae wild type (laboratory strain M129); assay: Mpn growth inhibition in 96-well plates (growth index A450/A560), wild type strain; assay type: cell-based, Mycoplasma pneumoniae; conditions: for MIC (Mpn growth): as stated in the text, strain not specified, 90% growth inhibition
Experimental: (§1) A series dilution of each compound in Mycoplasma growth medium was added to Mpn cultures in 96-well plates. The plates were sealed and incubated at 37°C. Mpn growth was monitored by using growth index value e.g. the ratio of absorbance at 450 nm and 560 nm of the culture medium. Thirty nucleoside and nucleobase analogs and a nucleoside transporter inhibitor were included, and two Mpn strains, wild type and a thyA mutant (lacking TS activity), were used.
(§2) Nucleoside and nucleobase analogs were dissolved in dimethyl sulfoxide (DMSO) as stock solutions and diluted with Mpn culture medium to the desired concentration immediately prior to use.
(§3) Mpn laboratory strain M129 wild type and a thyA mutant strain [31] were used in this study. Mpn was cultured at 37°C in a CO2 incubator using 75 cm^2 tissue culture flasks containing 50 ml Hayflick’s medium, and harvested at day 4 when the medium color change was observed. The cells were harvested and the pellet was resuspended in 6 ml fresh medium and the cfu/ml was determined by serial dilution (10-fold) and plating on broth agar plate. Colonies was counted and cfu/ml was calculated.
(§4) Inhibition studies were performed in 96-well plates containing 200 μl Mpn culture (approximately 10^6 cfu ml^-1) in Hayflick’s medium and 200 μl each compound in series dilutions (2-fold) with the growth medium, with three to four replicas. The plates were sealed with clear adhesive sheets and incubated at 37°C incubator. Absorbance ratio at 450 nm and 560 nm was used as Mpn growth index, which was measured daily, and by visual detection for at least 8 days, as previously described. […] The MICs (minimal inhibitory concentration required to inhibit Mpn growth to 90%) were determined as the lowest concentration at which the growth index was ≈ 10% of the control values (at the time when the control culture medium color turned yellow), essentially as described.

[2] = test system: M. pneumoniae thyA mutant (lacking TS activity); assay: microbe, parasite or virus in culture; assay type: cell-based, Mycoplasma pneumoniae; conditions: minimal concentration producing 90% inhibition; thyA mutant Mpn
Experimental: as §1, §2, §3, §4

[3] = test system: Mpn TS; assay: TS activity in total protein extracts of Mpn cultured with TFT; assay type: cell-based; conditions: various concentrations of TFT, 70 hours culture
Experimental: Total proteins were extracted from these cultures and used to determine the TK and TS activity.
Mpn wild type cells were cultured in the presence of [^3H]-dT and different concentrations of TFT. The cells were incubated at 37°C for 70 hours and harvested. The total uptake and incorporation of [^3H]-dT were analysed, and TK and TS activity were determined in total protein extracts.
To determine the effect of TFT on TK and TS activity, Mpn wild type cells were cultured in 75 cm^2 tissue culture flasks containing 50 ml medium, inoculated with 3 ml of stock culture (1 × 10^9 cfu/ml), in the presence of [^3H]-dT (1 μCi ml^-1) and different concentrations of TFT. After 70 hours at 37°C the cultures were harvested and divided to two aliquots, one was used to determine total uptake/metabolism of radiolabeled dT and total proteins were extracted from the other aliquot and used to measure TK and TS activity using [^3H]-dT and [5-^3H]-dUMP as substrates.

[4] = target: T1, TK in Mpn extracts (Mycoplasmoides pneumoniae, UniProt P75070); assay: Inhibition of dT phosphorylation in Mpn protein extracts; assay type: biochemical; conditions: 10 μM tritium labelled thymidine; read-out: IC50 Mpn extracts
T1 construct: endogenous in cells; host or cells: Mycoplasma pneumoniae M129 total protein extract
T1 sequence (P75070 1-191): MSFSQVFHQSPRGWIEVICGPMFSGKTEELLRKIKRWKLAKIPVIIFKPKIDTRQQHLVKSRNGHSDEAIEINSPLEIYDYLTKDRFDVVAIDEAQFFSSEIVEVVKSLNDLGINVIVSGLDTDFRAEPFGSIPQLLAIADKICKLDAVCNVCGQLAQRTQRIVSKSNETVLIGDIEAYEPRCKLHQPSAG
Experimental: Both TFT and 5FdU are substrates of Mycoplasma and human TKs, as described above and earlier studies.
Thymidine kinase assay was performed using tritium labelled thymidine ([^3H]-dT) as substrate and various concentrations of the inhibitors essentially as previously described to determine the IC50 values of TFT and 5FdU.

O=c1[nH]c(=O)n([C@H]2C[C@H](O)[C@@H](CO)O2)cc1C(F)(F)F [Trifluorothymidine (TFT), Trifluorothymidine]
MIC (Mpn growth) ([1]; listed as trifluorothymidine): approximately 2 μg ml^-1
MIC (Mpn growth) ([1]; listed as trifluorothymidine (TFT)): 1.8 µg/mL (≈ 6.08 µM)
Wild type MIC ([1]; minimal concentration producing 90% inhibition, wild type Mpn): 1.8 µg/mL
thyA mutant MIC [2]: 1.8 µg/mL
TS activity (in words) [3]: unchanged
IC50 [4]: 9.1 ± 2.9 µM

Source: publication PMC3750255, “Inhibition of Mycoplasma pneumoniae growth by FDA-approved anticancer and antiviral nucleoside and nucleobase analogs” (BMC Microbiology, 2013)
